Assay results from paper PMC5569891 (Chembiochem : a European journal of chemical biology, 2017).

Target: T1, HsSQS (Homo sapiens, UniProt P37268)
T1 sequence (P37268 1-417): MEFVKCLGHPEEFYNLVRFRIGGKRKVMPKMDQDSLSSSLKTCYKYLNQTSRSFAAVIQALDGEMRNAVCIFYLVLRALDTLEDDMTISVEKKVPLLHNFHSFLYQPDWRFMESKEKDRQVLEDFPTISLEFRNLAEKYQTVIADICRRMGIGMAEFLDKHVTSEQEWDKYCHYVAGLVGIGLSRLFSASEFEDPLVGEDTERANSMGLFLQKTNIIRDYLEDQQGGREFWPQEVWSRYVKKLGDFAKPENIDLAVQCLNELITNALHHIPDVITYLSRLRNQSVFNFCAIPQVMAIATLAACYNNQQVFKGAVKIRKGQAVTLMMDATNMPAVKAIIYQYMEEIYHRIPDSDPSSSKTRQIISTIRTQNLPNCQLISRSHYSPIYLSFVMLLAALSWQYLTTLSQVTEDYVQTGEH
Assay: LC-MS of products
Assay type: biochemical
Details: no NADPH

With CC(C)=CCC/C(C)=C/CC/C(C)=C/COP(=O)(O)OP(=O)(O)O [compound 1, farnesyl diphosphate] the “LC-MS of products (PSPP)” value was “LC-MS traces showing reaction products of NmHpnD+FPP (in blue) and HsSQS+FPP (in red)”.
